The record followed here is US12071402B2, “Immunosuppressant formulations” (Novartis AG, priority 2011, dated 2024).

SMILES strings stand for the structures.

The data set is described as follows: Stability of NVS-A in mixtures with various compounds, 50° C./75% RH, 4 weeks, HPLC assay. The note with it: vial. The data set is classed as physicochemical. How it is done: The following Example illustrates the stability of the hemifumarate salt of 1-{4-[1-(4-cyclohexyl-3-trifluoromethyl-benzyloxyimino)-ethyl]-2-ethyl-benzyl}-azetidine-3-carboxylic acid in the presence of various compounds. Mixtures of this API with various compounds were exposed in a sealed vial to conditions of 50° C. temperature and 75% relative humidity for 4 weeks. After 4 weeks, the API degradation and sum of degradation products were assayed.
Assay method: HPLC using agilent […] and a Phenomenex Gemini C18 column. UV detection at 260 nm was used. The mobile phase used was a gradient water-acetonitrile containing 0.2% (v/v) formic acid and 10% (v/v) Triethylamine.

For the compound `CCc1cc(C(C)=NOCc2ccc(C3CCCCC3)c(C(F)(F)F)c2)ccc1CN1CC(C(=O)O)C1` [NVS-A, 1-{4-[1-(4-cyclohexyl-3-trifluoromethyl-benzyloxyimino)-ethyl]-2-ethyl-benzyl}-azetidine-3-carboxylic acid], the “Assay (%)*” value was determined as 100.2% and the “Sum of unknown peaks (%)*” value is given as 1.86%.
